Data set [1] in a line: Toxicity in brine shrimp assessed as induction of lethality. The following applies: artemia salina; read-out: LD50 (the source's name).
Data set [2] has as its target Angiotensin-converting enzyme (Homo sapiens, UniProt P12821). Briefly: Inhibition of ACE (unknown origin) using hippuryl-histidyl-leucine as substrate pre-incubated with compound for 10 mins followed by substrate addition measured after 60 mins by HPLC analysis.
The next data set deals with Candida albicans. Briefly: Antifungal activity against Candida albicans assessed as fungal growth inhibition measured after 20 hrs. It counts as functional.
For data set [3], the target named is Prostaglandin G/H synthase 2 (Homo sapiens) (UniProt P35354). Briefly: Inhibition of COX2 (unknown origin) at 20 nM relative to control.
Another data set deals with HL-60. Briefly: Antiproliferative activity against human HL-60 cells assessed as cell growth inhibition measured after 72 hrs by CCK-8 assay. The following applies: HL-60, 72 h. It counts as functional, cell-based. On the technique in general: Formazan colour is commonly taken as a measure of viable cells.
The subject of another data set is P388. Briefly: Cytotoxicity against mouse P388 cells assessed as cell growth inhibition measured after 72 hrs by MTT assay. It counts as functional, cell-based.
Data set [4] can be described thus: Antioxidant activity assessed as free radical scavenging activity incubated for 30 mins under dark condition by microplate reader analysis. It is filed as functional.
Data set [5] concerns the target Rho-associated protein kinase 2 (Homo sapiens, UniProt O75116). Briefly: Inhibition of ROCK2 (unknown origin) by HTRF kinase assay. In general terms: Time-resolved FRET reads energy transfer from a long-lived donor to a nearby acceptor.
Data set [6] has as its system Trypanosoma brucei brucei. Briefly: Antitrypanosomal activity against Trypanosoma brucei brucei GUTat3.1 assessed as parasite growth inhibition measured after 24 hrs by alamar blue staining based analysis. It is filed as functional, organism-based. Particulars: GUTat3.1, 24 h. Background: Resazurin is reduced to fluorescent resorufin, in cell work by metabolically active cells.

The subject of a further data set is HCT-116. Briefly: Cytotoxicity against human HCT-116 cells assessed as cell growth inhibition incubated for 48 hrs by CCK-8 assay. It counts as functional, cell-based. The following applies: HCT-116, 48 h.
Data set [7] has as its system A549. Briefly: Cytotoxicity against human A549 cells assessed as cell growth inhibition incubated for 48 hrs by CCK-8 assay. It counts as functional, cell-based. The following applies: A549, 48 h.
Data set [8] in a line: Antioxidant activity assessed as free radical scavenging activity incubated for 30 mins by microplate reader analysis. It counts as functional.
Data set [9] can be described thus: Antiproliferative activity against human Pancreatic cancer cell assessed as cell growth inhibition measured after 24 hrs by CCK-8 assay. It counts as functional, cell-based.
The next data set deals with Staphylococcus aureus. Briefly: Antibacterial activity against Staphylococcus aureus ATCC 25923 assessed as bacterial growth inhibition. It counts as functional, organism-based.
The next data set has as its system A-375. Briefly: Cytotoxicity against human A-375 cells assessed as cell growth inhibition by MTT assay. It counts as functional, cell-based.
The test system of a further data set is HepG2. Briefly: Cytotoxicity against human HepG2 cells assessed as cell growth inhibition by MTT assay. It counts as functional, cell-based.
Data set [10] has as its system A549. Briefly: Cytotoxicity against human A549 cells assessed as cell growth inhibition by MTT assay. It is filed as functional, cell-based.
For the next data set, the system named is MCF7. Briefly: Cytotoxicity against human MCF7 cells assessed as cell growth inhibition by MTT assay. It counts as functional, cell-based.
In a further data set the test system is OS-RC-2. Briefly: Antiproliferative activity against human OS-RC-2 cells assessed as cell growth inhibition measured after 72 hrs by CCK-8 assay. It counts as functional, cell-based. The following applies: OS-RC-2, 72 h.

Converted amounts (≈) assume the structure as drawn.

Chain of Rho-associated protein kinase 2 (O75116 whole entry): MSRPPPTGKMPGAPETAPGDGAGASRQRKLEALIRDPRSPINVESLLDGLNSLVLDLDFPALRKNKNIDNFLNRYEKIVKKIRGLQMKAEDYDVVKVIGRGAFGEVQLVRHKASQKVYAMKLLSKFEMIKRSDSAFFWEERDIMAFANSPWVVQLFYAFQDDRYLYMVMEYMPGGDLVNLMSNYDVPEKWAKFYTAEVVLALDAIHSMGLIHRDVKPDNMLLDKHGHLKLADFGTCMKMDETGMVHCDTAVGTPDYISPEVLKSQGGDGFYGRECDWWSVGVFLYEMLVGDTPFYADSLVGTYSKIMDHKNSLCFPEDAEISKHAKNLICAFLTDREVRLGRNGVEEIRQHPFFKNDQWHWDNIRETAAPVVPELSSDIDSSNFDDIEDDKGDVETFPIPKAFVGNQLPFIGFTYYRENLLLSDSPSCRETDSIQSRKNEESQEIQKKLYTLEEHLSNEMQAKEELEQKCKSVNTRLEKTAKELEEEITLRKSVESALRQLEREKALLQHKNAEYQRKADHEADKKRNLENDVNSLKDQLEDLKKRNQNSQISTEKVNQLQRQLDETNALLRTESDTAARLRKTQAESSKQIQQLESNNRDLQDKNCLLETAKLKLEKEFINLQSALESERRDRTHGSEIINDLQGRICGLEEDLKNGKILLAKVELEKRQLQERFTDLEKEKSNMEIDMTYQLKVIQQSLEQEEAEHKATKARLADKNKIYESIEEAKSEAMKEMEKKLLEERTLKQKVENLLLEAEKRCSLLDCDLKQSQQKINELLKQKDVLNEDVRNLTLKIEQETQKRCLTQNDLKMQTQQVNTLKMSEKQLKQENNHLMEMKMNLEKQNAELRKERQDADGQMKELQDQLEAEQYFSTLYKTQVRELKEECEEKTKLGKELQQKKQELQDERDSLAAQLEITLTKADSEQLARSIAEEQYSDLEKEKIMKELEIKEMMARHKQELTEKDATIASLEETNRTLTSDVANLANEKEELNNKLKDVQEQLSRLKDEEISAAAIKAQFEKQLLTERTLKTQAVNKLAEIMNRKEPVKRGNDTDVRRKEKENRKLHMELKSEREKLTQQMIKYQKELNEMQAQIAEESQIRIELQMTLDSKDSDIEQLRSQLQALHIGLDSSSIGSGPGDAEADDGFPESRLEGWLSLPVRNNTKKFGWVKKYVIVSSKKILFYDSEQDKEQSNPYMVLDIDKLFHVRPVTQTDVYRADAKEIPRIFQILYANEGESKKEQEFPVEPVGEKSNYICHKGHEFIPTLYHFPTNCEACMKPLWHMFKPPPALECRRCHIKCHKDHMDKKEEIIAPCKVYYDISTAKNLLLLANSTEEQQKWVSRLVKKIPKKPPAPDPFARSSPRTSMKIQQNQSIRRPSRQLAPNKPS
Chain of Angiotensin-converting enzyme (P12821 whole entry): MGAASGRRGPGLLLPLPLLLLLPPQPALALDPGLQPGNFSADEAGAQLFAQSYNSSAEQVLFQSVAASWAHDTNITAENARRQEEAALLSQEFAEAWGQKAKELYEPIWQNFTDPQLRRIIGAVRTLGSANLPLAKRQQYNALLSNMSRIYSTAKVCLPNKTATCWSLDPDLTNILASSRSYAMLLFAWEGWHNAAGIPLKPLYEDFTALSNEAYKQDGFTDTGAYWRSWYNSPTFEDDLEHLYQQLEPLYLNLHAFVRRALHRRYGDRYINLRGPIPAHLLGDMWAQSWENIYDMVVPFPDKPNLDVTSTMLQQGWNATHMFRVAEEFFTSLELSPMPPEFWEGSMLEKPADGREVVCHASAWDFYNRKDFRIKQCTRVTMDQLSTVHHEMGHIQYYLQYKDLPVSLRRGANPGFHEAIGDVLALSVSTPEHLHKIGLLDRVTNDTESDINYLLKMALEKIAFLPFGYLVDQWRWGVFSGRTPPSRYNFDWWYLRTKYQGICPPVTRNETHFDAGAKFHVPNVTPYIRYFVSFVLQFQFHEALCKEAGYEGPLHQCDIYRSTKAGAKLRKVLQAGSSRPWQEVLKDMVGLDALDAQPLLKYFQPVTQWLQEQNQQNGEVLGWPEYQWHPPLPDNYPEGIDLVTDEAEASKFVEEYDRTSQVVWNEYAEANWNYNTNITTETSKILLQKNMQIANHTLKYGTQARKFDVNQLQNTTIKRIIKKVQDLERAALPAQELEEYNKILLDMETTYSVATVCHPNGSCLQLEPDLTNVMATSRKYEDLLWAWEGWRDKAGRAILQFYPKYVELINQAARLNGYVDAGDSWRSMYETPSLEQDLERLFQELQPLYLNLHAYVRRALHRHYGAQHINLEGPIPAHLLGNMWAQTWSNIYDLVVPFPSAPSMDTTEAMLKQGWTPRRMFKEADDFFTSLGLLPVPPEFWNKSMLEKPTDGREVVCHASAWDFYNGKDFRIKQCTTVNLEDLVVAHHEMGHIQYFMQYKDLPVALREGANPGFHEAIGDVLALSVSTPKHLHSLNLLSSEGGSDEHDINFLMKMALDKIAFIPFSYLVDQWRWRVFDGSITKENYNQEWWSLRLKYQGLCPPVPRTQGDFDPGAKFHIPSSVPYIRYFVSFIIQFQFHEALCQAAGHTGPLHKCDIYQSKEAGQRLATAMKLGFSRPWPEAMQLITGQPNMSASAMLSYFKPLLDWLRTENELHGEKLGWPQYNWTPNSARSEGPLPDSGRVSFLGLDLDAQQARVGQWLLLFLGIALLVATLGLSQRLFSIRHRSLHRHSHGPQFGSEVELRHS
Chain of Prostaglandin G/H synthase 2 (Homo sapiens) (P35354 whole entry, looked up): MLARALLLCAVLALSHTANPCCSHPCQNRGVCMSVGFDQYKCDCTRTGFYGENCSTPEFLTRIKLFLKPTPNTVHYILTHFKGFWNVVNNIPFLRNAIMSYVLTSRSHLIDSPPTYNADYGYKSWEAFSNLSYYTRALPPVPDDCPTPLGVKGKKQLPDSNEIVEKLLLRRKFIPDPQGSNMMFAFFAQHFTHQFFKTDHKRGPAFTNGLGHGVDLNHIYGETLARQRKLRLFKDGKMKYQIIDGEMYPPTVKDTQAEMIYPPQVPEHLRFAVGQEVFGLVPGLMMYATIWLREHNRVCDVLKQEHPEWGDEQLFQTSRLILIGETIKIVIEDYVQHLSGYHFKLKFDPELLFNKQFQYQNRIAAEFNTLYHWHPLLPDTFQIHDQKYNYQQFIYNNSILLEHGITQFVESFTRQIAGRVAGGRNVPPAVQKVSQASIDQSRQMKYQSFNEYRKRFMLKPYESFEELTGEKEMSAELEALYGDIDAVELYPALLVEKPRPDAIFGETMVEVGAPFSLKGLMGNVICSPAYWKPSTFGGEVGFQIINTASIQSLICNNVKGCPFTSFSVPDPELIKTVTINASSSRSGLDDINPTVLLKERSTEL

For `CCC/C=C/[C@@H]1Cc2cc(O)c(C)c(O)c2C(=O)O1`, the LC50 in data set [1] is 18.6 µg/mL (≈ 70.9 µM).

In the case of `CC(=O)C[C@@]1(O)C(=O)C2=C3O[C@H](C)C(C)(C)[C@]3(O)C(=O)c3c(C)cc(O)c(c32)C1=O`, the IC50 (usually the point on the concentration scale where inhibition reaches its midpoint) in data set [2] was found to be 3100 nM.

With `CCCCCC[C@H]1C(=O)O[C@H](C)[C@H](NC(=O)c2cccc(NC=O)c2O)C(=O)O[C@@H](C)[C@@H]1OC(C)=O`, in the data set with Candida albicans, the MIC (commonly the least concentration at which growth counts as inhibited) came to 5 µg/mL (≈ 9.87 µM).

For the molecule `O=C(CNC(=O)c1ccccc1-n1c(=O)[nH]c2ccccc2c1=O)c1ccccc1`, the inhibition (commonly the relative decrease from the control value, in per cent) in [3] was greater than 65%.

`C/C=C/[C@H](OC)[C@H](C)/C=C(C)/C=C/C/C(C)=C/Cc1nc(OC)c(OC)c(O)c1C`: the IC50 with HL-60 is less than 100 nM.

As for `C=CC(C)(C)c1[nH]c2ccccc2c1/C=C1\NC(=O)[C@]2(C[C@H](C)C=C[C@@H]2CCc2c(O)cc(CC=C(C)C)c(O)c2C=O)NC1=O` (stereo in doubt), in the data set on P388 (p388), the IC50 was 2500 nM.

With `CCCC1C(=O)C2CCC3(C)CC(C)C(O3)C(O)/C=C(\C)C(=O)CC1OC2=O` (stereo unspecified), in data set [4], the IC50 came to 2400 nM.

`CCOC(=O)[C@@H](Cc1c(O)cc(C)c2c(O)c3c(cc12)[C@@H](O)CCC3=O)C(=O)OC`: in data set [5], the IC50 was 960 nM.

`CC(=O)/C(=C\c1ccc(O)cc1)OC(Cc1c[nH]c2ccccc12)C(=O)O` (stereo unspecified): in data set [6], the IC50 amounted to 5210 nM.

Take `CC1=CC(=O)[C@H]2C(C)(C)CCC[C@]2(C)[C@@]1(O)C=O`: the IC50 in the data set on P388 (Mus musculus, P388, 72 h) stood at 8700 nM.

Take `C=CC(C)(C)c1[nH]c2ccccc2c1/C=C1\NC(=O)[C@@]2(C[C@@H](C)C=C[C@@H]2/C=C/c2c(O)cc(CC=C(C)C)c(O)c2C=O)NC1=O`: the IC50 in the data set with P388 (Mus musculus, P388, 72 h) is 11300 nM.

For `C=C1CCC(C(C)C)C2/C=C(\C(=O)OC)CC/C=C(/C(=O)O)C(O)CC12` (stereo unspecified), in the data set on HCT-116, the IC50 was found to be 38400 nM.

For the molecule `C=C1C(=O)CC2OC(=O)C(=C(O)C2CC)CCC2(C)CC(C)C(O2)C(C)C1OC` (stereo unspecified), the IC50 in [4] came to 2400 nM.

For the molecule `C[C@@H]1O[C@@H](Oc2ccc3c(c2)OCC(c2ccc(O)cc2)C3=O)C[C@H](O)[C@@H]1O` (stereo partly specified), the IC50 came to 13.5 µg/mL in the data set on HCT-116 and 13.5 µg/mL (≈ 34.9 µM) with A549 [7].

`O=C(NCCCO)c1ccc(O)c(O)c1`: the IC50 in data set [8] amounted to 4700 nM.

With `C/C=C/[C@H](O)[C@H](C)/C=C(C)/C=C/C/C(C)=C/Cc1[nH]c(OC)cc(=O)c1C`, the IC50 in the data set on HL-60 was less than 100 nM.

For the molecule `C/C=C/C=C/CCc1c(O)ccc(O)c1CO`, the IC50 in data set [4] was determined as 9300 nM.

For `C[C@@H]1O[C@@H](Oc2ccc(C3COc4cc(O)ccc4C3=O)cc2)C[C@H](O)[C@@H]1O` (stereo partly specified), the IC50 with HCT-116 worked out at 13.5 µg/mL; in the data set on A549 [7], 13.5 µg/mL (≈ 34.9 µM).

For the molecule `CC(=O)OCCCCNC(=O)c1ccc(O)c(O)c1`, in data set [8], the IC50 amounted to 4700 nM.

Consider `COC(C)[C@H]1[C@H]2[C@H](C[C@H]1C)[C@H]1C[C@H]3/C=C/C(=O)C4=C(O)[C@@H](CCCNC(=O)/C=C\C[C@@H]3[C@H]1[C@@H]1O[C@@H]12)NC4=O` (stereo partly specified), for which the IC50 in [9] was 1300 nM.

As to `O=C1O/C(=C\c2ccc(O)cc2)C(O)=C1c1ccc(O)cc1` [ASPULVINONE E], the IC50 in the data set with Staphylococcus aureus worked out at 26100 nM.

Turning to `O=C(NCCCCO)c1ccc(O)c(O)c1`, in data set [8], the IC50 is 4700 nM.

For `COc1ccc(C[C@@H]2NC(=O)[C@@]34OC(=O)O/C=C/[C@@](C)(O)C(=O)[C@@H](C)C/C=C/[C@H]3[C@@H]3O[C@]3(C)[C@@H](C)[C@@H]24)cc1`, the IC50 with A-375, in the data set with HepG2, in the data set on A549 [10] and in the data set with MCF7 was 470 nM each time.

For `CCOC(=O)[C@H](Cc1c(O)cc(C)c2c(O)c3c(cc12)[C@@H](O)CCC3=O)C(=O)OC`, the IC50 in data set [5] came to 960 nM.

With `C/C=C(\C)[C@H](O)[C@H](C)/C=C(/C=C/C/C(C)=C/Cc1nc(OC)c(OC)c(O)c1C)CC`, the IC50 in the data set on OS-RC-2 worked out at 4500 nM.

Consider `CC[C@H]1[C@H]2[C@H](C[C@H]1C)[C@H]1C[C@H]3/C=C/C(=O)C4=C(O)[C@@H](CCCNC(=O)/C=C\C[C@@H]3[C@H]1[C@@H]1O[C@@H]12)NC4=O`, for which the IC50 in [9] was determined as 1300 nM.

Values taken from ChEMBL document CHEMBL5107956, “Natural products from mangrove sediments-derived microbes: Structural diversity, bioactivities, biosynthesis, and total synthesis” (Eur J Med Chem, 2022).
